Results as given in US7632829B2, “Diazepan derivatives” (Hoffmann-La Roche Inc., priority 2006, dated 2009).

Target: T1, human chemokine receptor 2 isoform B (Homo sapiens, UniProt P41597)
T1 construct: host or cells: CHOK1-CCR2B-A5 (CHO-K1)
T1 sequence (P41597 1-360 isoform P41597-2): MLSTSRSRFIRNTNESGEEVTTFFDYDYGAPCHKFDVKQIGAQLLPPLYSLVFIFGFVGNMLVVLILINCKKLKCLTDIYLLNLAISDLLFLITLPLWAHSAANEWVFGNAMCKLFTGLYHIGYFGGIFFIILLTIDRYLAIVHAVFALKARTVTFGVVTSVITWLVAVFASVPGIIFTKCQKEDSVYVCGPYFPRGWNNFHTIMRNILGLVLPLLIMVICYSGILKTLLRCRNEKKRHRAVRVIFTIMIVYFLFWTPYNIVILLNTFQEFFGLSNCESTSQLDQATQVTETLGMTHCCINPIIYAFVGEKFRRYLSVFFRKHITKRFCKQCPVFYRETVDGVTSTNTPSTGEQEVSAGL
Assay: Calcium mobilization assay (FLIPR, CHOK1-CCR2B-A5 cells, 20 nM MCP-1)
Type: cell-based
Details: Ca mobilisation assay, CCR2, antagonist activity vs 20 nM MCP-1
Procedure, shortened: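 FLIPR Fluo-4 calcium readout in CHO-K1 cells stably overexpressing human CCR2B; compounds first monitored 80 s for agonist activity, then after 20-30 min at 30 °C challenged with 20 nM MCP-1. Response is max minus basal fluorescence; antagonist value is concentration giving 50% inhibition of specific calcium increase.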

IC50 | Compound
521 nM | CN(CCN1CCN(C(=O)/C=C/c2ccc(Cl)c(Cl)c2)CCC1=O)C1CCCC1 [Example 109, 4-[-3-(Cyclopentyl-methyl-amino)-ethyl]-1-[(E)-3-(3,4-dichloro-phenyl)-acryloyl]-[1,4]diazepan-5-one]
3 nM | O=C(/C=C/c1ccc(F)c(Cl)c1)N1CCC(=O)N(C[C@@H](O)CN2CCC3(CC3)C(O)C2)CC1 (stereo partly drawn) [Example 336, 1-[(E)-3-(3-Chloro-4-fluoro-phenyl)-acryloyl]-4-[(S)-2-hydroxy-3-((−)-4-hydroxy-6-aza-spiro[2.5]oct-6-yl)-propyl]-[1,4]diazepan-5-one]
739 nM | O=C1CC2(CCN(CCCN3CCN(C(=O)/C=C/c4ccc(F)c(Cl)c4)CCC3=O)CC2)CN1 [Example 198]
391 nM | CC1CCCCC1NCCCN1CCN(C(=O)C=Cc2ccc(Cl)c(Cl)c2)CCC1=O (mixture of isomers) [Example 64, cis/trans-1-[(E)-3-(3,4-Dichloro-phenyl)-acryloyl]-4-[3-(2-methyl-cyclohexylamino)-propyl]-[1,4]diazepan-5-one]
613 nM | COCC1CCN(CCCN2CCN(C(=O)/C=C/c3ccc(Cl)c(Cl)c3)CCC2=O)CC1 [Example 247]
319 nM | O=C(/C=C/c1ccc(Cl)c(Cl)c1)N1CCC(=O)N(CCCCCN2CCCCC2)CC1 [Example 162, 1-[(E)-3-(3,4-Dichloro-phenyl)-acryloyl]-4-(5-piperidin-1-yl-pentyl)-[1,4]diazepan-5-one]
982 nM | O=C(/C=C/c1ccc(Cl)c(Cl)c1)N1CCC(=O)N(CCN[C@@H]2CCCC[C@H]2O)CC1 (racemic) [Example 355]
812 nM | CC1(CO)CCCCN1CCCN1CCN(C(=O)/C=C/c2ccc(Cl)c(Cl)c2)CCC1=O (racemic) [Example 250]
510 nM | O=C(/C=C/c1ccc(Cl)c(Cl)c1)N1CCC(=O)N(CCCN2CCC(O)(Cc3ccccc3)CC2)CC1 [Example 49, 4-[(E)-3-(4-Benzyl-4-hydroxy-piperidin-1-yl)-propyl]-1-[(E)-3-(3,4-dichloro-phenyl)-acryloyl]-[1,4]diazepan-5-one]
265 nM | CN(CCCN1CCN(C(=O)/C=C/c2ccc(Cl)c(Cl)c2)CCC1=O)C1CCCC1 [Example 37, 4-[-3-(Cyclopentyl-methyl-amino)-propyl]-1-[(E)-3-(3,4-dichloro-phenyl)-acryloyl]-[1,4]diazepan-5-one]
205 nM | COCC1C(O)CCCN1CCCCN1CCN(C(=O)/C=C/c2ccc(Cl)c(Cl)c2)CCC1=O (racemic) [Example 486]
119 nM | O=C(/C=C/c1ccc(Cl)c(Cl)c1)N1CCC(=O)N(CCCCN2CCC(O)CC2)CC1 [Example 424]
132 nM | C[C@@H]1CN(CCCN2CCN(C(=O)/C=C/c3ccc(Cl)c(Cl)c3)CCC2=O)CC[C@@H]1O (racemic) [Example 253]
77 nM | O=C(C=Cc1ccc(Cl)c(Cl)c1)N1CCC(=O)N(CCCN2CCC(CO)C(O)C2)CC1 (mixture of isomers) [Example 266, (rac,cis)-1-[(E)-3-(3,4-Dichloro-phenyl)-acryloyl]-4-[3-(3-hydroxy-4-hydroxymethyl-piperidin-1-yl)-propyl]-[1,4]diazepan-5-one]
201 nM | O=C(/C=C/c1ccc(Cl)c(Cl)c1)N1CCC(=O)N(CC[C@H](O)CN2CCCCC2)CC1 [Example 178, 1-[(E)-3-(3,4-Dichloro-phenyl)-acryloyl]-4-((S)-3-hydroxy-4-piperidin-1-yl-butyl)-[1,4]diazepan-5-one]
1260 nM | CC1CCC(NCCN2CCN(C(=O)/C=C/c3ccc(Cl)c(Cl)c3)CCC2=O)CC1 (mixture of isomers) [Example 138, cis/trans-1-[(E)-3-(3,4-Dichloro-phenyl)-acryloyl]-4-{3-[(4-methyl-cyclohexyl)-amino]-ethyl}-[1,4]diazepan-5-one]

IC50 | Compound
70 nM | O=C(/C=C/c1ccc(Cl)c(Cl)c1)N1CCC(=O)N(CCCCN2CCC(CO)CC2)CC1 [Example 422]
11 nM | O=C(/C=C/c1ccc(Cl)cc1)N1CCC(=O)N(CCCN2CCC3(CC3)C(O)C2)CC1 (centres unmarked) [Example 498]
244 nM | O=C(/C=C/c1ccc(Cl)c(Cl)c1)N1CCC(=O)N(CCCCN2CCC(O)C2)CC1 (racemic) [Example 433]
137 nM | COC[C@H]1CCN(C[C@H](O)CN2CCN(C(=O)/C=C/c3ccc(Cl)c(Cl)c3)CCC2=O)C[C@H]1O (mixture of isomers) [Example 329, 1-[(E)-3-(3,4-Dichloro-phenyl)-acryloyl]-4-[(S)-2-hydroxy-3-(cis-3-hydroxy-4-methoxymethyl-piperidin-1-yl)-propyl]-[1,4]diazepan-5-one]
312 nM | O=C(/C=C/c1ccc(Cl)c(Cl)c1)N1CCC(=O)N(CCCN2CCC(C(F)(F)F)CC2)CC1 [Example 72, 1-[(E)-3-(3,4-Dichloro-phenyl)-acryloyl]-4-[3-(4-trifluoromethyl-piperidin-1-yl)-propyl]-[1,4]diazepan-5-one]
323 nM | O=C(/C=C/c1ccc(F)c(Cl)c1)N1CCC(=O)N(CCCCN2CC[C@H](F)[C@@H](O)C2)CC1 (relative stereo) [Example 389]
296 nM | O=C(/C=C/c1ccc(Cl)c(Cl)c1)N1CCC(=O)N(CC(O)CN2CCCC(CO)C2)CC1 (racemic) [Example 289]
1240 nM | O=C(/C=C/c1ccc(Cl)c(Cl)c1)N1CCC(=O)N(CCN2CCCCC2)CC1 [Example 3, 1-[(E)-3-(3,4-Dichloro-phenyl)-acryloyl]-4-(2-piperidin-1-yl-ethyl)-[1,4]diazepan-5-one]
446 nM | C[N+]1(CCCN2CCN(C(=O)/C=C/c3ccc(Cl)c(Cl)c3)CCC2=O)CCC2(CC1)NC(=O)NC2=O (centres unmarked) [Example 153, 8-(3-{4-[(E)-3-(3,4-Dichloro-phenyl)-acryloyl]-7-oxo-[1,4]diazepan-1-yl}-propyl)-8-methyl-2,4-dioxo-1,3-diaza-8-azonia-spiro[4.5]decane iodide]
281 nM | COC1CCCN(CCCCN2CCN(C(=O)/C=C/c3ccc(Cl)c(Cl)c3)CCC2=O)C1 (racemic) [Example 435]
580 nM | O=C(/C=C/c1ccc(Cl)c(Cl)c1)N1CCC(=O)N(CCC(O)CN2CCCCC2CO)CC1 (racemic) [Example 374]
77 nM | CC1CCC(O)CN1CCCCN1CCN(C(=O)/C=C/c2ccc(Cl)c(F)c2)CCC1=O (racemic) [Example 413]
11 nM | O=C(/C=C/c1ccc(Cl)c(F)c1)N1CCC(=O)N(CCCCN2CCC3(CC3)C(O)C2)CC1 (stereo not drawn) [Example 416, 1-[(E)-3-(4-Chloro-3-fluoro-phenyl)-acryloyl]-4-[4-((-)-4-hydroxy-6-aza-spiro[2.5]oct-6-yl)-butyl]-[1,4]diazepan-5-one]
54 nM | CC1CCN(CCCN2CCN(C(=O)/C=C/c3ccc(Cl)c(Cl)c3)CCC2=O)CC1O (racemic) [Example 238]
258 nM | O=C(/C=C/c1ccc(Cl)c(Cl)c1)N1CCC(=O)N(CCCN2CCC(O)CC2)CC1 [Example 159, 1-[(E)-3-(3,4-Dichloro-phenyl)-acryloyl]-4-[3-(4-hydroxy-piperidin-1-yl)-propyl]-[1,4]diazepan-5-one]

Compound | IC50
(rac)-1-[(E)-3-(3,4-Dichloro-phenyl)-acryloyl]-4-[2-hydroxy-3-(2-hydroxy-2-hydroxymethyl-piperidin-1-yl)-propyl]-[1,4]diazepan-5-one [Example 307] | 437 nM
